Earlier results in article PMC7878667, “The Kinase Specificity of Protein Kinase Inhibitor Peptide” (Frontiers in Pharmacology, 2021).

Tests used:
PKC = details: ref Day et al., 1989; Smith et al., 1990
Description: In principle, this could be due to PKI interfering with 1) the protease reaction, 2) the fluorescence detection, or 3) the FRET response. […] Second, the forms of PKC used are different: we used purified human recombinant PKC isoforms expressed in insect ce ...

PKA catalytic subunit = details: ref Murray, 2008
Description: (§1) Despite the additional targets of PKI identified in our study, PKI seems more specific than the other commonly used PKA inhibitors, H89 and KT 5720 ([Murray, 2008]). This may be due to their different mechanisms of action. […] The off-target effects of these reagents have partial overlap ([Murray, 2008]).

PKBα = details: ref Murray, 2008
Description: as §1

ROCK2 = details: ref Murray, 2008
Description: as §1

PDK1 = details: ref Murray, 2008
Description: as §1

Compound: IAAGRTGRRQAIHDILVAA [PKI-tide]
- influence on PKC (PKC): did not find significant influence

Compound: O=S(=O)(NCCNC/C=C/c1ccc(Br)cc1)c1cccc2cnccc12 [H89]
- mechanism of PKA inhibition (PKA catalytic subunit): competitively inhibits ATP binding on the PKA catalytic subunit
- effect on PKBα (PKBα): inhibited
- effect on ROCK2 (ROCK2): inhibits ROCK2 potently

Compound: CCCCCCOC(=O)[C@]1(O)C[C@@H]2O[C@@]1(C)n1c3ccccc3c3c4c(c5c6ccccc6n2c5c31)C(=O)NC4 [KT 5720]
- effect on PDK1 activity (PDK1): inhibited
- mechanism of PKA inhibition (PKA catalytic subunit): competitively inhibits ATP binding on the PKA catalytic subunit
- effect on PKBα (PKBα): inhibited
